Activity calls are given as the source filed them. No cut-off for these calls is given here.
Assays:
[1] = system: Protein cereblon/GTPase KRas (Homo sapiens), P01116+Q96SW2 [G12D]; assay: PROTAC activity at CRBN/KRAS G12D mutant in human ASPC1 cells assessed as induction of KRAS G12D mutant degradation at 50 nM measured after 24 hrs by immunoblot analysis relative to control; assay type: cell-based
[2] = Elimination half life in male ICR mouse lung at 10 mg/kg, iv measured up to 336 hrs by LC-MS/MS analysis; assay type: ADME, organism-based; conditions: read-out: beta t1/2 (converted)
[3] = Drug concentration in male ICR mouse plasma at 10 mg/kg, iv measured after 0.25 hrs by LC-MS/MS analysis; assay type: ADME, organism-based
[4] = system: Protein cereblon/GTPase KRas (Homo sapiens), P01116+Q96SW2 [G12D]; assay: PROTAC activity at CRBN/KRAS G12D mutant in human ASPC1 cells assessed as induction of KRAS G12D mutant degradation at 5 nM preincubated with CRBN ligand followed by compound addition and measured after 24 hrs by Western blot analysis; assay type: cell-based
[5] = system: Protein cereblon/GTPase KRas (Homo sapiens), P01116+Q96SW2 [G12D]; assay: PROTAC activity at CRBN/KRAS G12D mutant in human ASPC1 cells assessed as induction of KRAS G12D mutant degradation at 5 nM measured after 24 hrs by immunoblot analysis relative to control; assay type: cell-based
[6] = Antiproliferative activity against human GP2d cells harbouring KRAS G12D mutant assessed as inhibition of cell growth measured after 72 hrs by Cell titer glo method; assay type: functional, cell-based
[7] = system: Protein cereblon/GTPase KRas (Homo sapiens), P01116+Q96SW2 [G12D]; assay: PROTAC activity at CRBN/KRAS G12D mutant in human ASPC1 cells assessed as induction of KRAS G12D mutant degradation at 1 nM measured after 12 hrs by immunoblot analysis relative to control; assay type: cell-based
[8] = Inhibition of ERK phosphorylation in human GP2d cells harbouring KRAS G12D mutant measured after 24 hrs; assay type: cell-based
[9] = Volume of distribution at steady state in male Sprague-Dawley rat at 1 mg/kg, iv measured up to 24 hrs by LC-MS/MS analysis; assay type: ADME, organism-based; conditions: in vivo, read-out: Vdss
[10] = Plasma protein binding in rat at 2 uM by LC-MS/MS analysis; assay type: ADME, cell-free; conditions: read-out: PPB
[11] = molecular target: Cytochrome P450 1A2 (Homo sapiens, UniProt P05177); assay: Inhibition of CYP1A2 in human liver microsomes using phenacetin as substrate at 10 uM incubated for 15 mins in presence of NADPH by LC/MS analysis; assay type: ADME, Microsome; conditions: 0.25 h
Sequence of Cytochrome P450 1A2 (P05177 whole entry): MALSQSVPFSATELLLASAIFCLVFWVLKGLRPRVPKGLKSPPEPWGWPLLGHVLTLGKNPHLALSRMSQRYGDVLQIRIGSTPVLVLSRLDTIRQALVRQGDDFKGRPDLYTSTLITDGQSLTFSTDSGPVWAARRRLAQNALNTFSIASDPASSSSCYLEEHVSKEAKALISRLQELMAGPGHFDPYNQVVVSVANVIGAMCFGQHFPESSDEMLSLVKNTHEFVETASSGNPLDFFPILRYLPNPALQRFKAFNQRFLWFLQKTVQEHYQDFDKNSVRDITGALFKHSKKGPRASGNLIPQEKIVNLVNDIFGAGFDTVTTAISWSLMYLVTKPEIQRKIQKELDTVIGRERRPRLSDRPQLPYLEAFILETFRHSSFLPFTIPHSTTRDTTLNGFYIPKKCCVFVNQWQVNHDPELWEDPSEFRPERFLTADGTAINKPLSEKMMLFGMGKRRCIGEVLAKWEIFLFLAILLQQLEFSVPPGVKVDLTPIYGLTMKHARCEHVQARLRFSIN

[12] = Volume of distribution at steady state in male cynomolgus monkey at 1 mg/kg, iv measured up to 24 hrs by LC-MS/MS analysis; assay type: ADME, organism-based, Macaca fascicularis; conditions: in vivo, read-out: Vdss
[13] = Stability in dog plasma assessed as half life at 1 uM measured up to 120 mins by LC-MS/MS analysis; assay type: ADME, cell-free, Canis lupus familiaris
[14] = Antitumor activity against human PK-59 cells xenografted in female Balb/c nude mouse model assessed as tumor growth inhibition at 1 mg/kg, iv QW measured after 28 days relative to control; assay type: functional; conditions: PK-59, 672 h, time 28 day, read-out: TGI
[15] = system: Protein cereblon/GTPase KRas (Homo sapiens), P01116+Q96SW2 [G12D]; assay: In vivo PROTAC activity at CRBN/KRAS G12D mutant in male Balb/c nude mouse xenografted with human GP2d cells assessed as degradation of KRAS G12D mutant at 10 mg/kg, iv measured after 7 days relative to control; assay type: functional, organism-based; conditions: time 7.0 day
[16] = Half life in male ICR mouse at 1 mg/kg, iv measured up to 24 hrs by LC-MS/MS analysis; assay type: ADME, organism-based; conditions: in vivo
[17] = Inhibition of Raf (unknown origin)/GTP loaded KRas G12D mutant interaction preincubated for 15 mins followed by anti-tag1-eu3 and Tag2-XL665 antibody addition and measured for 120 mins by HTRF method; design: species or system Homo sapiens
[18] = Stability in rat plasma assessed as half life at 1 uM measured up to 120 mins by LC-MS/MS analysis; assay type: ADME, cell-free
[19] = Half life in male Sprague-Dawley rat at 1 mg/kg, iv measured up to 24 hrs by LC-MS/MS analysis; assay type: ADME, organism-based; conditions: in vivo
[20] = Antiproliferative activity against human PK-59 cells harbouring KRAS G12D mutant assessed as inhibition of cell growth measured after 72 hrs by Cell titer glo method; assay type: functional, cell-based; conditions: PK-59, 72 h
[21] = Plasma protein binding in human at 2 uM by LC-MS/MS analysis; assay type: ADME, cell-free; conditions: read-out: PPB
[22] = Stability in monkey plasma assessed as half life at 1 uM measured up to 120 mins by LC-MS/MS analysis; assay type: ADME, cell-free, Macaca mulatta; conditions: rhesus monkey
[23] = system: CCRF-CEM; assay: Antitumor activity against human CCRF-CEM cells harbouring KRAS G12D mutant xenografted in female Balb/c nude mouse model assessed as tumor regression at 1 to 10 mg/kg, iv QW administered weekly and measured after 28 days; assay type: functional, organism-based; conditions: dose 1-10 mg/kg, time 28.0 day
[24] = Drug concentration in male Balb/c nude mouse tumor xenografted with human GP2d cells at 10 mg/kg, iv administered as single dose measured after 7 days by LC-MS/MS analysis; assay type: ADME, organism-based, Neoplasm; conditions: time 7 day, read-out: Ct
[25] = system: GP2d; assay: PROTAC activity at CRBN/KRAS G12D mutant in human GP2d cells assessed as induction of KRAS G12D mutant degradation 0.01 to 100 nM measured after 24 hrs by immunoblot analysis; assay type: cell-based; conditions: dose 0.01-100 nM
[26] = system: Protein cereblon/GTPase KRas (Homo sapiens), P01116+Q96SW2 [G12D]; assay: In vivo PROTAC activity at CRBN/KRAS G12D mutant in male Balb/c nude mouse xenografted with human GP2d cells assessed as inhibition of ERK phosphorylation level at 10 mg/kg, iv measured after 7 days; assay type: functional, organism-based; conditions: time 7.0 day
[27] = Metabolic stability in rat liver microsomes assessed as half life at 1 uM preincubated for 3 mins with NADPH and measured up to 60 mins by LC-MS/MS analysis; assay type: ADME, Microsome; conditions: time < 63 min
[28] = Toxicity in female Balb/c nude mouse xenografted with human GP2d cells assessed as drug tolerance at 1 to 10 mg/kg, iv QW measured after 28 days; assay type: organism-based; conditions: in vivo, 672 h, dose 1-10 mg/kg, time 28 day
[29] = system: HEK293; assay: Antiproliferative activity against HEK293 cells harbouring wild type KRAS assessed as inhibition of cell growth measured after 72 hrs by Cell titer glo method; assay type: toxicity, cell-based; conditions: human, hek293, 72 h
[30] = Antitumor activity against human GP2d cells xenografted in female Balb/c nude mouse model assessed as tumor growth inhibition at 3 mg/kg, iv QW measured after 28 days relative to control; assay type: functional; conditions: 672 h, time 28 day, read-out: TGI
[31] = Metabolic stability in human liver microsomes assessed as intrinsic clearance at 1 uM preincubated for 3 mins with NADPH and measured up to 60 mins by LC-MS/MS analysis; assay type: ADME, Microsome; conditions: time < 63 min, read-out: CLH
[32] = Half life in male ICR mouse plasma at 10 mg/kg, iv measured after 72 hrs by LC-MS/MS analysis; assay type: ADME, organism-based
[33] = system: SK-LU-1; assay: Antiproliferative activity against human SK-LU-1 cells harbouring KRAS G12D mutant assessed as inhibition of cell growth measured after 72 hrs by Cell titer glo method; assay type: functional, cell-based
[34] = system: Protein cereblon/GTPase KRas (Homo sapiens), P01116+Q96SW2 [G12D]; assay: In vivo PROTAC activity at CRBN/KRAS G12D mutant in male Balb/c nude mouse xenografted with human PK-59 cells assessed as increase in cleaved caspase 7 level at 10 mg/kg, iv measured after 24 hrs relative to control; assay type: functional, organism-based

Sequence of Protein cereblon/GTPase KRas (Homo sapiens), P01116+Q96SW2 [G12D] (P01116 whole entry G12D): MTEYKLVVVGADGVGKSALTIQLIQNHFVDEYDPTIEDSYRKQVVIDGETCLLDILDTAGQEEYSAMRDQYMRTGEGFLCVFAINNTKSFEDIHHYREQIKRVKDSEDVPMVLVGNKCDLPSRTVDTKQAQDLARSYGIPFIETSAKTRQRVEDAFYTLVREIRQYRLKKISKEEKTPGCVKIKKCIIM
Sequence of Protein cereblon/GTPase KRas (Homo sapiens), P01116+Q96SW2 [G12D] (Q96SW2 whole entry partner): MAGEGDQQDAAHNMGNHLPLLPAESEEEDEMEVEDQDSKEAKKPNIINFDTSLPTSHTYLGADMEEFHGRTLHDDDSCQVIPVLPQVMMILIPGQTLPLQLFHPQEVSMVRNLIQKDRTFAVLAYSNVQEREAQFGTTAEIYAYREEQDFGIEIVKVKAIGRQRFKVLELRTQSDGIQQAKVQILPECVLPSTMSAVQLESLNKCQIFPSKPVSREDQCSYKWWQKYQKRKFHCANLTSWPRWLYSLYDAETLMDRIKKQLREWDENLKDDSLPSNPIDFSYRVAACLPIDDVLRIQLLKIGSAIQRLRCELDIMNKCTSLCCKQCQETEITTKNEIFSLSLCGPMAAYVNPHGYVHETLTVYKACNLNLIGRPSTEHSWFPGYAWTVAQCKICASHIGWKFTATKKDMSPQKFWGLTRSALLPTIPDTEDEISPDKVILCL

C#Cc1c(F)ccc2cc(O)cc(-c3ncc4c(N5CC6CCC(C5)N6)nc(OCC5(CN6CCC7(CC6)CC(N6CCC(c8cc9c(cc8F)c(N8CCC(=O)NC8=O)nn9C)CC6)C7)CC5)nc4c3F)c12
Activity [1]: 74%
half-life [2]: 4.38 days
concentration at 0.25 h [3]: 903 ng/mL
Activity [4]: Active
Activity [5]: 92%
IC50 [6]: 0.19 nM
Activity [7]: 70%
IC50 [8]: 0.35 nM
Vd [9]: 10.3 L/kg
fraction unbound at 2 µM [10]: < 0.05
inhibition (INH) [11]: Not_active
Vd [12]: 12.7 L/kg
half-life at 1 µM [13]: 433 min
inhibition in vivo at 1 mg/kg [14]: 98%
Activity [15]: 95%
half-life [16]: 529 min
IC50 [17]: 3.23 nM
half-life at 1 µM [18]: 770 min
half-life [19]: 578 min
IC50 [20]: 2.8 nM
fraction unbound at 2 µM [21]: < 0.05
half-life at 1 µM [22]: 770 min
Activity [23]: Weak_effect
concentration at 168 h [24]: 840 ng/g
Activity [25]: Active
Activity [26]: Active
half-life at 1 µM [27]: 151 min
Activity [28]: Non-toxic
Activity [29]: Non-toxic
inhibition in vivo at 3 mg/kg [30]: 96.9%
CLint scaled at 1 µM [31]: 8.1 mL/min/kg
half-life [32]: 906 min
Activity [33]: Active; Compound Showed Stronger Antiproliferative Activity Compared To Mrtx1133
Activity [34]: > 100%
